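Dose response: 5 concentrations. Exposure: 48 h. Format: 96-well plates. Endpoint: linear interpolation; highest concentration if not reached. Definition used: TGI = concentration required for complete inhibition of growth.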
Columns and labels:
Experiment in all cases: growth of human tumour cells (NCI), 48 h
[1] = system: CAKI-1 renal
[2] = system: RXF 393 renal
[3] = system: SK-MEL-2 melanoma
[4] = system: OVCAR-3 ovarian
[5] = system: HT29 colon
[6] = system: KM12 colon
[7] = system: OVCAR-8 ovarian
[8] = system: SK-MEL-28 melanoma
[9] = system: TK-10 renal
[10] = system: LOX IMVI melanoma
[11] = system: NCI/ADR-RES ovarian
[12] = system: SK-MEL-5 melanoma
[13] = system: HCT-15 colon
[14] = system: SF-295 CNS
[15] = system: EKVX NSCLC
[16] = system: MCF7 breast
[17] = system: SK-OV-3 ovarian
[18] = system: HCC-2998 colon
[19] = system: SN12C renal
[20] = system: SNB-19 CNS
[21] = system: HOP-62 NSCLC
[22] = system: CCRF-CEM leukemia
[23] = system: SF-268 CNS
[24] = system: SW-620 colon
[25] = system: MOLT-4 leukemia
[26] = system: COLO 205 colon
[27] = system: HOP-92 NSCLC
[28] = system: OVCAR-4 ovarian
[29] = system: M14 melanoma
[30] = system: 786-0 renal
[31] = system: NCI-H522 lung
[32] = system: UACC-62 melanoma
[33] = system: U251 CNS
[34] = system: DU-145 prostate
[35] = system: HL-60(TB) leukemia
[36] = system: NCI-H460 lung
[37] = system: ACHN renal
[38] = system: UACC-257 melanoma
[39] = system: HCT-116 colon
[40] = system: MDA-N
[41] = system: OVCAR-5 ovarian
[42] = system: NCI-H226 lung
[43] = system: HS 578T breast
[44] = system: MDA-MB-435
[45] = system: BT-549 breast
[46] = system: MDA-MB-231 breast
[47] = system: SNB-75 CNS
[48] = system: NCI-H23 lung
[49] = system: PC-3 prostate
[50] = system: UO-31 renal
[51] = system: SF-539 CNS
[52] = system: IGROV1 ovarian
[53] = system: A549 NSCLC
[54] = system: K-562 leukemia
[55] = system: MALME-3M melanoma
[56] = system: RPMI-8226 leukemia
[57] = system: T-47D breast
[58] = system: SR leukemia

Q: `CCCCOC(=O)C(=O)C(CC(C(=O)Cc1ccccc1)c1ccccc1)C(=O)C=C(C)C` (configuration not stated) was tested. Which TGI [1] did it give?
A: The TGI was greater than 100 µM.

Q: What about the TGI [2] of the same molecule?
A: Its TGI is greater than 100 µM.

Q: And the TGI [3]?
A: Its TGI is greater than 100 µM.

Q: What about the TGI [4] of the same molecule?
A: Its TGI is greater than 100 µM.

Q: And the TGI [5]?
A: The TGI was greater than 100 µM.

Q: What about the TGI [6] of the same molecule?
A: Its TGI is greater than 100 µM.

Q: And the TGI [7]?
A: Its TGI is greater than 100 µM.

Q: And the TGI [8]?
A: The TGI was greater than 100 µM.

Q: And the TGI [9]?
A: Its TGI is greater than 100 µM.

Q: What about the TGI [10] of the same molecule?
A: Its TGI is greater than 100 µM.

Q: What about the TGI [11] of the same molecule?
A: Its TGI is greater than 100 µM.

Q: What about the TGI [12] of the same molecule?
A: The TGI was greater than 100 µM.

Q: What about the TGI [13] of the same molecule?
A: The TGI was greater than 100 µM.

Q: And the TGI [14]?
A: Its TGI is greater than 100 µM.

Q: And the TGI [15]?
A: Its TGI is greater than 100 µM.

Q: What about the TGI [16] of the same molecule?
A: Its TGI is greater than 100 µM.

Q: And the TGI [17]?
A: Its TGI is greater than 100 µM.

Q: And the TGI [18]?
A: Its TGI is greater than 100 µM.

Q: What about the TGI [19] of the same molecule?
A: The TGI was greater than 100 µM.

Q: And the TGI [20]?
A: Its TGI is greater than 100 µM.

Q: What about the TGI [21] of the same molecule?
A: The TGI was greater than 100 µM.

Q: And the TGI [22]?
A: The TGI was greater than 100 µM.

Q: And the TGI [23]?
A: The TGI was greater than 100 µM.

Q: What about the TGI [24] of the same molecule?
A: Its TGI is greater than 100 µM.

Q: And the TGI [25]?
A: Its TGI is greater than 100 µM.

Q: What about the TGI [26] of the same molecule?
A: Its TGI is greater than 100 µM.

Q: And the TGI [27]?
A: The TGI was greater than 100 µM.

Q: And the TGI [28]?
A: The TGI was greater than 100 µM.

Q: What about the TGI [29] of the same molecule?
A: The TGI was greater than 100 µM.

Q: What about the TGI [30] of the same molecule?
A: The TGI was greater than 100 µM.

Q: And the TGI [31]?
A: The TGI was greater than 100 µM.

Q: What about the TGI [32] of the same molecule?
A: The TGI was greater than 100 µM.

Q: What about the TGI [33] of the same molecule?
A: The TGI was greater than 100 µM.

Q: And the TGI [34]?
A: The TGI was greater than 100 µM.

Q: And the TGI [35]?
A: Its TGI is greater than 100 µM.

Q: What about the TGI [36] of the same molecule?
A: The TGI was greater than 100 µM.

Q: And the TGI [37]?
A: Its TGI is greater than 100 µM.

Q: What about the TGI [38] of the same molecule?
A: Its TGI is greater than 100 µM.

Q: What about the TGI [39] of the same molecule?
A: Its TGI is greater than 100 µM.

Q: What about the TGI [40] of the same molecule?
A: Its TGI is greater than 100 µM.

Q: What about the TGI [41] of the same molecule?
A: The TGI was greater than 100 µM.

Q: And the TGI [42]?
A: Its TGI is greater than 100 µM.

Q: What about the TGI [43] of the same molecule?
A: Its TGI is greater than 100 µM.

Q: And the TGI [44]?
A: The TGI was greater than 100 µM.

Q: And the TGI [45]?
A: The TGI was greater than 100 µM.

Q: And the TGI [46]?
A: Its TGI is greater than 100 µM.

Q: What about the TGI [47] of the same molecule?
A: Its TGI is greater than 100 µM.

Q: What about the TGI [48] of the same molecule?
A: Its TGI is greater than 100 µM.

Q: And the TGI [49]?
A: The TGI was greater than 100 µM.

Q: What about the TGI [50] of the same molecule?
A: Its TGI is greater than 100 µM.

Q: And the TGI [51]?
A: Its TGI is greater than 100 µM.

Q: What about the TGI [52] of the same molecule?
A: The TGI was greater than 100 µM.

Q: What about the TGI [53] of the same molecule?
A: The TGI was greater than 100 µM.

Q: With `CCN(CC)CCN1CCNc2c3cc(OC)ccc3nc3c([N+](=O)[O-])ccc1c23` as the molecule, how does the TGI [1] read?
A: The TGI was greater than 10 µM.

Q: What about the TGI [2] of the same molecule?
A: Its TGI is 2.11 µM.

Q: And the TGI [5]?
A: The TGI was 6.39 µM.

Q: And the TGI [6]?
A: The TGI was 6.21 µM.

Q: What about the TGI [7] of the same molecule?
A: Its TGI is greater than 10 µM.

Q: What about the TGI [9] of the same molecule?
A: The TGI was greater than 10 µM.

Q: What about the TGI [10] of the same molecule?
A: Its TGI is 3.21 µM.

Q: And the TGI [12]?
A: Its TGI is 2.92 µM.

Q: And the TGI [13]?
A: The TGI was 2.47 µM.

Q: And the TGI [14]?
A: The TGI was 4.28 µM.

Q: And the TGI [15]?
A: The TGI was 4.68 µM.

Q: And the TGI [16]?
A: Its TGI is 2.98 µM.

Q: What about the TGI [17] of the same molecule?
A: The TGI was greater than 10 µM.

Q: What about the TGI [18] of the same molecule?
A: The TGI was 2.03 µM.

Q: What about the TGI [19] of the same molecule?
A: The TGI was 2.36 µM.

Q: What about the TGI [54] of the same molecule?
A: The TGI was greater than 10 µM.

Q: And the TGI [21]?
A: The TGI was 2.64 µM.

Q: What about the TGI [22] of the same molecule?
A: The TGI was 2.32 µM.

Q: And the TGI [23]?
A: The TGI was greater than 10 µM.

Q: And the TGI [24]?
A: The TGI was 5.4 µM.

Q: And the TGI [55]?
A: Its TGI is 3.23 µM.

Q: What about the TGI [25] of the same molecule?
A: Its TGI is 1.42 µM.

Q: And the TGI [56]?
A: The TGI was 2.87 µM.

Q: What about the TGI [27] of the same molecule?
A: The TGI was 6.18 µM.

Q: And the TGI [28]?
A: The TGI was 3.12 µM.

Q: And the TGI [30]?
A: The TGI was 1.61 µM.

Q: And the TGI [34]?
A: Its TGI is greater than 10 µM.

Q: And the TGI [35]?
A: Its TGI is 2.12 µM.

Q: What about the TGI [38] of the same molecule?
A: The TGI was 5.7 µM.

Q: What about the TGI [40] of the same molecule?
A: Its TGI is 2.27 µM.

Q: And the TGI [57]?
A: Its TGI is greater than 10 µM.

Q: And the TGI [44]?
A: The TGI was 2.69 µM.

Q: What about the TGI [46] of the same molecule?
A: The TGI was 2.23 µM.

Q: And the TGI [47]?
A: Its TGI is 6.43 µM.

Q: What about the TGI [48] of the same molecule?
A: Its TGI is 2.44 µM.

Q: What about the TGI [49] of the same molecule?
A: Its TGI is 2.25 µM.

Q: And the TGI [58]?
A: Its TGI is 1.19 µM.

Q: And the TGI [52]?
A: Its TGI is 9.25 µM.

Q: What about the TGI [53] of the same molecule?
A: Its TGI is 9.07 µM.

Source: PubChem BioAssay (NCI)
